Test results published in US20240360157A1, “TYK2 INHIBITORS” (BIOGEN MA INC., priority 2021, published 2024).
Where a name gives a salt, the structure may show the parent alone.

Key:
Assay type in all cases: biochemical
[1] = target: human TYK2 catalytic kinase (JH1) domain (Homo sapiens (Human), UniProt P29597); experiment: ADP-Glo Kinase Assay, recombinant TYK2 catalytic kinase (JH1) domain; details: recombinant JH1 domain 2 nM, 10 μM ATP, JAK3-974 peptide, mean, read-out: TYK2 biochem IC50 (nM) Mean
Sequence of human TYK2 catalytic kinase (JH1) domain (P29597 897-1176): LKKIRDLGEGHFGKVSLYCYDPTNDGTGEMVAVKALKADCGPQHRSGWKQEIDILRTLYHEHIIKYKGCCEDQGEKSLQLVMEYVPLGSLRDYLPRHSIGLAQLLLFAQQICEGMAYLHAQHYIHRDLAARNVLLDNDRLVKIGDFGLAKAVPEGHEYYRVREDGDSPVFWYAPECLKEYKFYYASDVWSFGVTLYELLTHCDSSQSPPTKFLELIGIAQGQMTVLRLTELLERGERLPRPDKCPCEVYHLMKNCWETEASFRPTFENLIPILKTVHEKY
Protocol: (§1) Compounds of the disclosure were assessed for their ability to inhibit TYK2, JAK1, JAK2, and JAK3 activity. The inhibitory properties of the compounds of the disclosure described herein can be evidenced by testing in any one of the following protocols.
(§2) The kinase activity of recombinantly generated catalytic kinase (also known as JH1) domain of human JAK1, JAK2, JAK3 and TYK2 were evaluated in a plate-based assay using the ADP-Glo™ Kinase Assay platform. Specifically, 4 nM of recombinant JAK1 kinase domain is used to phosphorylate 50 μM of a JAK3-342 (sequence ALVDGYFRLTT) peptide in the presence of 35 μM ATP. Catalytic activities of recombinant JAK2, JAK3 and TYK2 kinase domain (0.2, 0.3 and 2 nM, respectively) are evaluated by the phosphorylation status of the JAK3-974 (50 μM; sequence LPLDKDYYVVR) peptide with the addition of ATP (15, 4 and 10 μM, respectively). The reactions proceed for 100 minutes and the catalytic activity is quantified by first depleting the unused ATP, converting the hydrolyzed ADP into ATP to generate luminescence in a luciferase reaction; which is the basis of the ADP-Glo platform. Compounds are tested at either 10 μM or 1 μM top concentration, 11 points of 3-fold dilution. The data is normalized and the percent activity versus log concentration of compound is fitted with a 4-parameter logistic model to generate a curve and an IC50 value.

[2] = target: human JAK1 catalytic kinase (JH1) domain (Homo sapiens (Human), UniProt P23458); experiment: ADP-Glo Kinase Assay, recombinant JAK1 catalytic kinase (JH1) domain; details: recombinant JH1 domain 4 nM, 35 μM ATP, JAK3-342 peptide, mean, read-out: JAK1 biochem IC50 (nM) Mean
Sequence of human JAK1 catalytic kinase (JH1) domain (P23458 875-1153): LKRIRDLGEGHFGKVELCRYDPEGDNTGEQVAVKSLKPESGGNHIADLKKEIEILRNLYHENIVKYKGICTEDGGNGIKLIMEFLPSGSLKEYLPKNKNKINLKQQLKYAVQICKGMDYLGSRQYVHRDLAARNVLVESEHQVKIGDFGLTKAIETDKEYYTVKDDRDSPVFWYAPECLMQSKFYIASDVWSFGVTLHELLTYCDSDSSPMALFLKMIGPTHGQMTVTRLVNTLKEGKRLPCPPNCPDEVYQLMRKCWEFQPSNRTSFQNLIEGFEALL
Protocol: as §1, §2

[3] = target: human JAK3 catalytic kinase (JH1) domain (Homo sapiens (Human), UniProt P52333); experiment: ADP-Glo Kinase Assay, recombinant JAK3 catalytic kinase (JH1) domain; details: recombinant JH1 domain 0.3 nM, 4 μM ATP, JAK3-974 peptide, mean, read-out: JAK3 biochem IC50 (nM) Mean
Sequence of human JAK3 catalytic kinase (JH1) domain (P52333 822-1111): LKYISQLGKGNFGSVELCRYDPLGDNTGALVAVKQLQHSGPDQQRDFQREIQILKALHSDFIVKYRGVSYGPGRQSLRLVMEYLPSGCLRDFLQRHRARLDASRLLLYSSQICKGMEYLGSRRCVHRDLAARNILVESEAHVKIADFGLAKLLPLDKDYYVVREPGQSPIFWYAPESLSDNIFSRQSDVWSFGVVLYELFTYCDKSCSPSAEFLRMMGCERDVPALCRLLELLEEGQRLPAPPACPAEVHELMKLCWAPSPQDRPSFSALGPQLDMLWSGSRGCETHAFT
Protocol: as §1, §2

[4] = target: human JAK2 catalytic kinase (JH1) domain (Homo sapiens (Human), UniProt O60674); experiment: ADP-Glo Kinase Assay, recombinant JAK2 catalytic kinase (JH1) domain; details: recombinant JH1 domain 0.2 nM, 15 μM ATP, JAK3-974 peptide, mean, read-out: JAK2 biochem IC50 (nM) Mean
Sequence of human JAK2 catalytic kinase (JH1) domain (O60674 849-1124): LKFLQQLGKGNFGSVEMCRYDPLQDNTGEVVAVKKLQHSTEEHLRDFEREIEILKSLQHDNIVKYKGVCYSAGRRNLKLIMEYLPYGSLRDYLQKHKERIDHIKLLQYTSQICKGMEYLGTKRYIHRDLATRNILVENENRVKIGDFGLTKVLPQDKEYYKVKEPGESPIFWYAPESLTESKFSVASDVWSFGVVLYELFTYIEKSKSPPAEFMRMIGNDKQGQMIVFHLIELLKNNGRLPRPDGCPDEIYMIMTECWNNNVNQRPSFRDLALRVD
Protocol: as §1, §2

Structure (SMILES) | IC50 [1] [nM] | IC50 [2] [nM] | IC50 [3] [nM] | IC50 [4] [nM]
O=C([C@@H]1C[C@H]1F)N1C2CCC1CN(c1ccnn3cc(-c4ncc(F)cn4)cc13)C2 [Example 108, ((1S,2R)-2-fluorocyclopropyl)(3-(6-(5-fluoropyrimidin-2-yl)pyrrolo[1,2-b]pyridazin-4-yl)-3,8-diazabicyclo[3.2.1]octan-8-yl)methanone] | 48 | 909 | 3920 | 1050
O=C(CC(F)(F)F)N1C2CCC1CN(c1ncnn3cc(-c4cnn(C(F)F)c4)cc13)C2 [Example 43, 1-(3-(6-(1-(difluoromethyl)-1H-pyrazol-4-yl)pyrrolo[2,1-f][1,2,4]triazin-4-yl)-3,8-diazabicyclo[3.2.1]octan-8-yl)-3,3,3-trifluoropropan-1-one] | 223 | 892 | 4640 | 5200
Cn1cc(-c2cc3c(N4CC5CCC(C4)N5S(=O)(=O)[C@@H]4CC4(F)F)ccnn3c2)cn1 [Example 198, 4-(8-(((R)-2,2-difluorocyclopropyl)sulfonyl)-3,8-diazabicyclo[3.2.1]octan-3-yl)-6-(1-methyl-1H-pyrazol-4-yl)pyrrolo[1,2-b]pyridazine] | 15.1 | 266 | 652 | 95
O=C([C@@H]1C[C@H]1F)N1C2CCC1CN(c1ncnc3[nH]c(-c4ccc(C(F)(F)F)nc4)cc13)C2 [Example 228, ((1S,2R)-2-fluorocyclopropyl)(3-(6-(6-(trifluoromethyl)pyridin-3-yl)-7H-pyrrolo[2,3-d]pyrimidin-4-yl)-3,8-diazabicyclo[3.2.1]octan-8-yl)methanone] | 41.2 | 315 | 7440 | 813
Cn1cc(-c2nc3c(N4CC5CCC(C4)N5C(=O)[C@@H]4C[C@H]4F)ccnc3[nH]2)cn1 [Example 200, ((1S,2R)-2-fluorocyclopropyl)(3-(2-(1-methyl-1H-pyrazol-4-yl)-3H-imidazo[4,5-b]pyridin-7-yl)-3,8-diazabicyclo[3.2.1]octan-8-yl)methanone] | 0.4 | 9 | 78 | 6
Cc1ccc(-c2nc3c(N4CC5CCC(C4)N5C(=O)[C@@H]4C[C@H]4F)ccnc3[nH]2)cn1 [Example 205, ((1S,2R)-2-fluorocyclopropyl)(3-(2-(6-methylpyridin-3-yl)-3H-imidazo[4,5-b]pyridin-7-yl)-3,8-diazabicyclo[3.2.1]octan-8-yl)methanone] | 4.6 | 25 | 246 | 22
O=C(C1CC1)N1C2CCC1CN(c1ncnn3cc(-c4ccc5nncn5c4)cc13)C2 [Example 184] | 230 | 2340 | 6270 | 7480
O=C([C@@H]1CC1(F)F)N1C2CCC1CN(c1ccnn3cc(C4CC4)cc13)C2 [Example 25, (3-(6-cyclopropylpyrrolo[1,2-b]pyridazin-4-yl)-3,8-diazabicyclo[3.2.1]octan-8-yl)((S)-2,2-difluorocyclopropyl)methanone] | 662 | 8060 | 10000 | 10000
CC(C)(F)C(=O)N1C2CCC1CN(c1ncnn3cc(-c4cnn(C(F)F)c4)cc13)C2 [Example 32, 1-(3-(6-(1-(difluoromethyl)-1H-pyrazol-4-yl)pyrrolo[2,1-f][1,2,4]triazin-4-yl)-3,8-diazabicyclo[3.2.1]octan-8-yl)-2-fluoro-2-methylpropan-1-one trifluoroacetate] | 242 | 1800 | 2990 | 4400
COc1nccc(-c2cc3c(N4CC5CCC(C4)N5C(=O)[C@@H]4C[C@H]4F)ccnn3c2)c1F [Example 26, (3-(6-(3-fluoro-2-methoxypyridin-4-yl)pyrrolo[1,2-b]pyridazin-4-yl)-3,8-diazabicyclo[3.2.1]octan-8-yl)((1S,2R)-2-fluorocyclopropyl)methanone] | 9.8 | 292 | 1190 | 145
Cn1cc(-c2cc3c(N4CC5CCC(C4)N5C(=O)C4CCC4)ncnn3c2)cn1 [Example 67, Cyclobutyl(3-(6-(1-methyl-1H-pyrazol-4-yl)pyrrolo[2,1-f][1,2,4]triazin-4-yl)-3,8-diazabicyclo[3.2.1]octan-8-yl)methanone] | 365 | 3230 | 4440 | 7460
O=C([C@H]1CC1(F)F)N1C2CCC1CN(c1ncnn3cc(-c4cnn(C(F)F)c4)cc13)C2 (single isomer, unassigned) [Example 77] | 46.3 | 1290 | 8880 | 1410
Cn1cc(-c2cc3c(N4CC5CCC(C4)N5C(=O)C4CC4)ncnn3c2)nn1 [Example 186, cyclopropyl(3-(6-(1-methyl-1H-1,2,3-triazol-4-yl)pyrrolo[2,1-f][1,2,4]triazin-4-yl)-3,8-diazabicyclo[3.2.1]octan-8-yl)methanone] | 845 | ≥ 10000 | ≥ 10000 | 9850
Cn1cc(-c2cc3c(N4CC5CCC(C4)N5S(=O)(=O)C4CC4)ncnc3[nH]2)cn1 [Example 191] | 102 | 1780 | 650 | 601
O=C([C@H]1C[C@H](C(F)(F)F)C1)N1C2CCC1CN(c1ncnn3cc(-c4cnn(C(F)F)c4)cc13)C2 [Example 28, (3-(6-(1-(difluoromethyl)-1H-pyrazol-4-yl)pyrrolo[2,1-f][1,2,4]triazin-4-yl)-3,8-diazabicyclo[3.2.1]octan-8-yl)((1r,3r)-3-(trifluoromethyl)cyclobutyl)methanone] | 636 | 2140 | 10000 | 10000
Cc1ccc(-c2cc3c(N4CC5CCC(C4)N5C(=O)[C@@H]4C[C@H]4F)ncnc3[nH]2)cn1 [Example 224, ((1S,2R)-2-fluorocyclopropyl)(3-(6-(6-methylpyridin-3-yl)-7H-pyrrolo[2,3-d]pyrimidin-4-yl)-3,8-diazabicyclo[3.2.1]octan-8-yl)methanone] | 19.2 | 234 | 1100 | 462
Cn1cc(-c2cc3c(N4CC5CCC(C4)N5C(=O)C4CC4)ncnn3c2)c(F)n1 [Example 145] | 202 | 2360 | 6520 | 6020
Cn1cc(-c2nc3c(N4CC5CCC(C4)N5C(=O)[C@@H]4CC4(F)F)ccnc3[nH]2)cn1 [Example 201, ((S)-2,2-difluorocyclopropyl)(3-(2-(1-methyl-1H-pyrazol-4-yl)-3H-imidazo[4,5-b]pyridin-7-yl)-3,8-diazabicyclo[3.2.1]octan-8-yl)methanone] | 1.5 | 14 | 164 | 9
COc1nn(C)cc1-c1cc2c(N3CC4CCC(C3)N4C(=O)[C@@H]3C[C@H]3F)ncnn2c1 [Example 98, ((1S,2R)-2-fluorocyclopropyl)(3-(6-(3-methoxy-1-methyl-1H-pyrazol-4-yl)pyrrolo[2,1-f][1,2,4]triazin-4-yl)-3,8-diazabicyclo[3.2.1]octan-8-yl)methanone] | 9.8 | 672 | 1640 | 216
O=C(C1CC1)N1C2CCC1CN(c1ncnn3cc(-c4cnn([C@H]5CCOC5)c4)cc13)C2 [Example 157, cyclopropyl(3-(6-(1-((S)-tetrahydrofuran-3-yl)-1H-pyrazol-4-yl)pyrrolo[2,1-f][1,2,4]triazin-4-yl)-3,8-diazabicyclo[3.2.1]octan-8-yl)methanone] | 151 | 1380 | 2250 | 2270
O=C([C@@H]1C[C@H]1F)N1C2CCC1CN(c1ccnn3cc(-c4ccnc(N5CCC5)c4)cc13)C2 [Example 119, (3-(6-(2-(azetidin-1-yl)pyridin-4-yl)pyrrolo[1,2-b]pyridazin-4-yl)-3,8-diazabicyclo[3.2.1]octan-8-yl)((1S,2R)-2-fluorocyclopropyl)methanone] | 45 | 1720 | 5520 | 215
Cn1cc(-c2cc3c(N4CC5CCC(C4)N5C(=O)CC#N)ccnn3c2)cn1 [Example 23, 3-(3-(6-(1-methyl-1H-pyrazol-4-yl)pyrrolo[1,2-b]pyridazin-4-yl)-3,8-diazabicyclo[3.2.1]octan-8-yl)-3-oxopropanenitrile] | 9.8 | 137 | 346 | 117
